Measured values reported in article PMC5216056 (Nature Communications, 2017).
Values joined by “and” are separate entries in the source; they are usually repeats but may differ in a detail not shown here. Identical values can stand only once. Like-named read-outs stand apart in the source and are kept apart here.

How the values were obtained:
[1] = for Pct donor / Pct membrane / Pct acceptor: PAMPA; for Pct membrane: compound found in membranes; for Pampa Peff: membrane permeation coefficient
[2] = molecular target: T1, hCB2R (Homo sapiens, UniProt P34972); test: cell-based; type: cell-based; set-up: expressed in transfected cells; host or cells: Flp-In-293 (Invitrogen #R750-07), pcDNA5/FRT; details: for Emax: read-out: Emax ± SEM pERK hCB2R
[3] = molecular target: T2, MAGL (Homo sapiens, UniProt Q99685); test: Biochemical MAGL activity assay; details: for inhibition at 10 µM: read-out: MAGL % inhibition at 10 µM ± SD
T2 construct: expressed in transfected cells; host or cells: HEK293T (transient), membrane preparation
T2 sequence (Q99685 1-303): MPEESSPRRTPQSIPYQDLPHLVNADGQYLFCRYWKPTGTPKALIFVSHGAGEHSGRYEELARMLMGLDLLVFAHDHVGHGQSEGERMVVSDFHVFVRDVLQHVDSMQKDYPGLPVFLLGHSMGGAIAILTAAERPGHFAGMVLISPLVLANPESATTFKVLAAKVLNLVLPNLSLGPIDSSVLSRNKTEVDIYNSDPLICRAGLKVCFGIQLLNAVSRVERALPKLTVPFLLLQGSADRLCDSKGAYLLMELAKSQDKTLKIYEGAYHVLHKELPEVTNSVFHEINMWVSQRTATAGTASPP
Description: (§1) Cell culture and membrane preparation were performed as previously described. HEK293T cells (source: Dutch Cancer Institute) were grown in DMEM with stable glutamine and phenolred (PAA), 10% New Born Calf serum, penicillin and streptomycin. Cells were passaged every 2–3 days by resuspending in medium and seeding them to appropriate confluence. Membranes were prepared from transiently transfected HEK293T cells. One day prior to transfection 10^7 cells were seeded in a 15 cm petri dish. Cells were transfected by the addition of a 3:1 mixture of polyethyleneimine (60 μg) and plasmid DNA (20 μg) in 2 ml serum-free medium. The medium was refreshed after 24 h, and after 72 h the cells were harvested by suspending them in 20 ml medium. The suspension was centrifuged for 10 min at 1000, rpm, and the supernatant was removed. The cell pellet was stored at −80 °C until use. Cell pellets were thawed on ice and suspended in lysis buffer A (20 mM HEPES, 2 mM DTT, 0.25 M sucrose, 1 mM MgCl2, […] Benzonase). The suspension was homogenized by polytrone (3 × 7 s) and incubated for 30 min on ice. The suspension was subjected to ultracentrifugation (100,000 × g, 30 min, 4 °C, Beckman Coulter, Type Ti70 rotor) to yield the cytosolic fraction in the supernatant and the membrane fraction as a pellet. The pellet was resuspended in lysis buffer B (20 mM HEPES, 2 mM DTT). The protein concentration was determined with Quick Start Bradford assay (Biorad). The protein fractions were diluted to a total protein concentration of 1 mg ml^−1 and stored in small aliquots at −80 °C until use.
Percentage of inhibition of reference ligands was determined in comparison with an untreated control. […] Fluorescence was measured in 5 min intervals for 60 min.

[4] = molecular target: T3, hDAGL-α (Homo sapiens, UniProt Q9Y4D2); test: Biochemical DAGLα activity assay; details: for inhibition at 10 µM: read-out: DAGL % inhibition at 10 µM ± SD
T3 construct: expressed in transfected cells; host or cells: HEK293T (transient), membrane preparation
T3 sequence (Q9Y4D2 1-1042): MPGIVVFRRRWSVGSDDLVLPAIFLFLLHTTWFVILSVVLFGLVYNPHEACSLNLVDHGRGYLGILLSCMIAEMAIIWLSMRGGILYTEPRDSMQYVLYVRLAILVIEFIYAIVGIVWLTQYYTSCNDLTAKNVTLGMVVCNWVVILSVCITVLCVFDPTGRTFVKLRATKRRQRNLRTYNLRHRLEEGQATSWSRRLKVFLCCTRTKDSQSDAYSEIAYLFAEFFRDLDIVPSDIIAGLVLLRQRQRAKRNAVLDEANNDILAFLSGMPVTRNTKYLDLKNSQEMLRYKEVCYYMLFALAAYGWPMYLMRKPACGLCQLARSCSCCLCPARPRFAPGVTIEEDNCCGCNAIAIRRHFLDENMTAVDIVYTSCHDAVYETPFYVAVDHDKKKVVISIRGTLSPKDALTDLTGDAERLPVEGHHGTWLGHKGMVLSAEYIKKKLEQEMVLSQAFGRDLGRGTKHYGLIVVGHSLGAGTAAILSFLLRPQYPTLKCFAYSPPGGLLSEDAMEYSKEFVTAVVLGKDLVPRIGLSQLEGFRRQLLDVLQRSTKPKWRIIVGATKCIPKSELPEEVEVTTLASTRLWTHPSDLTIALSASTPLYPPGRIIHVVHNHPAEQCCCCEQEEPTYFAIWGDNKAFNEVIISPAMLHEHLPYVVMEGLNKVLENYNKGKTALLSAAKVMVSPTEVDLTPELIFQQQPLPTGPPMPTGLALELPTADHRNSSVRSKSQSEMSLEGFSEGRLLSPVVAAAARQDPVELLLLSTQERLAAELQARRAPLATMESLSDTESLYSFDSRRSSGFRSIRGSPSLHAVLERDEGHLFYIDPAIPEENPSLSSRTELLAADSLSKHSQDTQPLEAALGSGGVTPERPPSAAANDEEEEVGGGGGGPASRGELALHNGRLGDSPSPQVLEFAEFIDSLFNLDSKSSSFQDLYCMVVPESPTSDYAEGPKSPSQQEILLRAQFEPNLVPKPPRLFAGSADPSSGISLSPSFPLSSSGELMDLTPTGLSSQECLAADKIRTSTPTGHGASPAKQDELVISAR
Description: as §1
hDAGL-α activity was measured by the extent of the hydrolysis of para-nitrophenylbutyrate (PNP-butyrate) by membrane preparations from HEK293T cells (source: Dutch Cancer Institute) transiently transfected with hDAGL-α (ref. [43]). Percentage of inhibition of reference ligands was determined in comparison with an untreated control. Reactions were performed in 50 mM pH 7.2 HEPES buffer with 0.05 μg μl^−1 final protein concentration hDAGL-α transfected protein.

[5] = molecular target: T1, hCB2R; test: cell-based; type: cell-based; details: for Emax: read-out: Emax ± SEM β-AR recruitment hCB2R
[6] = molecular target: T1, hCB2R; test: cell-based; type: cell-based; set-up: expressed in transfected cells; host or cells: Flp-In-293 (Invitrogen #R750-07), pcDNA5/FRT; details: for Emax: read-out: Emax ± SEM cAMP hCB2R
[7] = molecular target: mCB2R (Mus musculus, UniProt P47936); test: biochemical; type: binding; set-up: from tissue; host or cells: spleen of male C57BL/6J mice
[8] = molecular target: T4, 5-HT2B (h) (Homo sapiens, UniProt P41595); test: CEREP panel; type: binding; details: 10 µM
T4 construct: CEREP (contract assay)

[9] = antagonists in presence of EC80 of CP55940
[10] = normalized to 10 µM CP55940, negative = inhibition of EC80 of CP55940

T4 sequence (P41595 whole entry): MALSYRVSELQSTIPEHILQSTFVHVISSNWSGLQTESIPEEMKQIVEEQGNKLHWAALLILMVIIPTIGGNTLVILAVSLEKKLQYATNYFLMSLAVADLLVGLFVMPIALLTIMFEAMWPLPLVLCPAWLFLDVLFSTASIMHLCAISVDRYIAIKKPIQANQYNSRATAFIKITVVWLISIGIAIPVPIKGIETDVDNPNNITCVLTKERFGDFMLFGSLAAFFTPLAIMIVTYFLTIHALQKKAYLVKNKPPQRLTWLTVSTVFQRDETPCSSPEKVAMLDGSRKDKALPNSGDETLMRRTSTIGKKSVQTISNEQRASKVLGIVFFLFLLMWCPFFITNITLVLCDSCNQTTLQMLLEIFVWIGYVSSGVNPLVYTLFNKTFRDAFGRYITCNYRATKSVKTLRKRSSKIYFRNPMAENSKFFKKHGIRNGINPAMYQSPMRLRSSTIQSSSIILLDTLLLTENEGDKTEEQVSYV
T1 sequence (P34972 whole entry): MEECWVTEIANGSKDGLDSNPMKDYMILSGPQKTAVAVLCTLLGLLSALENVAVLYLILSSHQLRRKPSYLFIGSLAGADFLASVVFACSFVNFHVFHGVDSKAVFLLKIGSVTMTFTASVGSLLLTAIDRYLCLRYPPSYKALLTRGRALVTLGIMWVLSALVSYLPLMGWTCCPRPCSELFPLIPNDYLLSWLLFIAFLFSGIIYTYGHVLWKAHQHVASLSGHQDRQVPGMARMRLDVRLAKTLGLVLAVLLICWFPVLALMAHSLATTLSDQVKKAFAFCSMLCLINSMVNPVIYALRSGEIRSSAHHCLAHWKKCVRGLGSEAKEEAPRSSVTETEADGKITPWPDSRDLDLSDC
mCB2R, sequence (P47936 whole entry): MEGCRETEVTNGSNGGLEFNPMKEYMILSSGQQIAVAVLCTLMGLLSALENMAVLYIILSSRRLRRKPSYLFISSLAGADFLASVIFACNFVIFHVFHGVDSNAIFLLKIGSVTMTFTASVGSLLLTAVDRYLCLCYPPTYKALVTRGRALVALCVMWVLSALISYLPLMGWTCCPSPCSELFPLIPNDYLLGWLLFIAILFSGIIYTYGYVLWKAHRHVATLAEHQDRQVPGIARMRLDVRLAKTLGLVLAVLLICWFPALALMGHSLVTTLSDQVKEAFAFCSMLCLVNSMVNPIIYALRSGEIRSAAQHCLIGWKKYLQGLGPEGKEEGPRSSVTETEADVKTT

| Compound | Pct donor [1] | Pct membrane [1] | Pampa Peff [1] | Emax ± SEM pERK hCB2R [2] | MAGL % inhibition at 10 µM ± SD [3] | DAGL % inhibition at 10 µM ± SD [4] | Emax ± SEM β-AR recruitment hCB2R [5] | Emax ± SEM cAMP hCB2R [6] | pKi ± SEM mCB2R ([7]; mouse spleen membranes) | inhibition at 10 µM [3] | inhibition at 10 µM [4] | Pct acceptor [1] | % inhibition 5-HT2B (h) [8] | other results |
| --- | --- | --- | --- | --- | --- | --- | --- | --- | --- | --- | --- | --- | --- | --- |
| CN1CCCCC1Cn1cc(C(=O)c2cc([N+](=O)[O-])ccc2I)c2ccccc21 (racemic) [(rac)-AM1241] | 41.3% | 55.7% | 1.86±0.62 cm/s*10-6 | 32 ± 12 | -2 ± 17% | 3 ± 10% | 14 ± 2 | 67 ± 3 | 7.73 ± 0.25 | – | – | – | – | CB2R Selectivity pERK [2]: 339; pEC50 ± SEM pERK hCB2R [2]: 7.6 ± 0.88; pEC50 ± SEM β-AR recruitment hCB2R [5]: < 5; pEC50 ± SEM cAMP hCB2R [6]: 8.49± 0.08; CB2R Selectivity (binding, mouse) [7]: 66 fold |
| CCCCC/C=C\C/C=C\C/C=C\C/C=C\CCCC(=O)OC(CO)CO [2-AG, 2-arachidonoyl glycerol] | – | – | – | – | – | – | – | – | – | 3 ± 15% | -12 ± 16% | – | – | EC50 ([2]; pEC50 ± SEM pERK hCB2R): 3.89 µM and > 3.16 µM; Emax [2]: 99 ± 11%; EC50 [5]: 2 µM; Emax [5]: 80 ± 21%; Emax [6]: 94 ± 1%; Ki ([7]; mouse spleen membranes, read-out: pKi ± SEM mCB2R (converted)): 0.0295 µM |
| CN1CCCC[C@@H]1Cn1cc(C(=O)c2cc([N+](=O)[O-])ccc2I)c2ccccc21 [(R)-AM1241] | 38.3% | 59.7% | 1.22 cm/s*10-6 | 75 ± 9 | -2 ± 18% | 10 ± 12% | 29 ± 4 | 65 ± 2 | 7.59 ± 0.11 | – | – | 2.1% | – | pEC50 ± SEM pERK hCB2R [2]: 7.84 ± 0.29; CB2R Selectivity pERK ([2]; 10^(pEC50 CB2R-pEC50 CB1R)): 151 fold; pEC50 ± SEM β-AR recruitment hCB2R [5]: 7.52 ± 0.43; CB2R Selectivity β-AR recruitment ([5]; 10^(pEC50 CB2R-pEC50 CB1R)): 86 fold; pEC50 ± SEM cAMP hCB2R [6]: 8.76 ± 0.18; CB2R Selectivity cAMP (human) ([6]; 10^(pEC50 CB2R-pEC50 CB1R)): 391 fold; CB2R Selectivity (binding, mouse) ([7]; 10^(pKi CB2R-pKi CB1R)): 17 fold |
| Cc1c(C(=O)NN2CCCCC2)nn(-c2ccc(Cl)cc2Cl)c1-c1ccc(I)cc1 [AM251] | – | – | – | -90 ± 3 | 0 ± 16% | 17 ± 6% | -104 ± 8 | -175 ± 19 | – | – | – | – | 28% | – |
| CCCCC/C=C\C/C=C\C/C=C\C/C=C\CCCC(=O)NCCO [Anandamide, N-arachidonoylethanolamine] | 96.3% | 2.7% | 0.26 cm/s*10-6 | – | – | – | – | – | – | -2 ± 19% | 32 ± 22% | 1.2% | – | Emax [2]: 62 ± 2%; Emax [5]: 38 ± 3%; Emax [6]: 87 ± 7%; Ki [7]: 0.347 µM |
| Cc1ccc2c(c1)Cc1c(C(=O)NN3CCCCC3)nn(-c3ccc(Cl)cc3Cl)c1-2 [Gp-1a] | 29.7% | 70.3% | 0 cm/s*10-6 | – | -1 ± 15% | – | – | – | 7.68 ± 0.23 | – | – | 0% | 29% | Emax ± SEM pERK hCB2R ([2]; normalized to 10 µM CP55940): 5 ± 6%; pEC50 ± SEM β-AR recruitment hCB2R [5, 9]: 5.86 ± 0.16; Emax ± SEM β-AR recruitment hCB2R [5, 10]: -147 ± 11%; pEC50 ± SEM cAMP hCB2R [6, 9]: 7.52 ± 0.14; Emax ± SEM cAMP hCB2R ([6]; normalized to 10 µM CP55940): -85 ± 10%; CB2R Selectivity (binding, mouse) ([7]; 10^(pKi CB2R-pKi CB1R)): 20 fold |
| CCCn1c(C)c(C(=O)c2cccc3ccccc23)c2ccccc21 [JWH015] | – | – | – | – | 0 ± 17% | -8 ± 5% | – | – | 6.63 ± 0.21 | – | – | – | 94% | – |
| Cc1c(C(=O)NN2CCCCC2)nn(-c2ccc(Cl)cc2Cl)c1-c1ccc(Cl)cc1 [SR141716A] | 25.2% | 74.3% | 0.27±0.11 cm/s*10-6 | – | – | – | – | – | – | 4 ± 18% | 20 ± 10% | 0.3% | – | inhibition at 10 µM ([8]; read-out: % inhibition 5-HT2B (h)): 16% |
| SR144528 | – | – | – | – | 3 ± 16% | -28 ± 11% | – | – | – | – | – | – | 22% | Emax ± SEM pERK hCB2R ([2]; normalized to 10 µM CP55940): -99 ± 3%; Emax ± SEM β-AR recruitment hCB2R [5, 10]: -111 ± 3%; Emax ± SEM cAMP hCB2R ([6]; normalized to 10 µM CP55940): -151 ± 10% |
